PubChem BioAssay (NCI)
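96-well plates; 48 h exposure; 5 concentrations. Endpoints by linear interpolation between flanking doses. Not reached: highest tested concentration assigned. TGI: concentration producing complete growth inhibition.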

How the values were obtained:
Assay in all cases: DTP human tumour cell line panel, 48 h
K-562 leukemia = test system: K-562 leukemia
RXF 393 renal = test system: RXF 393 renal
SF-539 CNS = test system: SF-539 CNS
MCF7 breast = test system: MCF7 breast
MDA-MB-435 = test system: MDA-MB-435
786-0 renal = test system: 786-0 renal
SK-MEL-2 melanoma = test system: SK-MEL-2 melanoma
TK-10 renal = test system: TK-10 renal
T-47D breast = test system: T-47D breast
SNB-19 CNS = test system: SNB-19 CNS
ACHN renal = test system: ACHN renal
UACC-62 melanoma = test system: UACC-62 melanoma
NCI-H522 lung = test system: NCI-H522 lung
PC-3 prostate = test system: PC-3 prostate
NCI/ADR-RES ovarian = test system: NCI/ADR-RES ovarian
UO-31 renal = test system: UO-31 renal
OVCAR-8 ovarian = test system: OVCAR-8 ovarian
MOLT-4 leukemia = test system: MOLT-4 leukemia
OVCAR-4 ovarian = test system: OVCAR-4 ovarian
IGROV1 ovarian = test system: IGROV1 ovarian

| Compound | TGI (K-562 leukemia) [µM] | TGI (RXF 393 renal) [µM] | TGI (SF-539 CNS) [µM] | TGI (MCF7 breast) [µM] | TGI (MDA-MB-435) [µM] | TGI (786-0 renal) [µM] | TGI (SK-MEL-2 melanoma) [µM] | TGI (TK-10 renal) [µM] | TGI (T-47D breast) [µM] | TGI (SNB-19 CNS) [µM] | TGI (ACHN renal) [µM] | TGI (UACC-62 melanoma) [µM] | TGI (NCI-H522 lung) [µM] | TGI (PC-3 prostate) [µM] | TGI (NCI/ADR-RES ovarian) [µM] | TGI (UO-31 renal) [µM] | TGI (OVCAR-8 ovarian) [µM] | TGI (MOLT-4 leukemia) [µM] | TGI (OVCAR-4 ovarian) [µM] | TGI (IGROV1 ovarian) [µM] |
| --- | --- | --- | --- | --- | --- | --- | --- | --- | --- | --- | --- | --- | --- | --- | --- | --- | --- | --- | --- | --- |
| COc1cc(-c2nc3ccccn3c2/N=C/c2cc(Br)cc(Br)c2O)ccc1O | > 100 | > 100 | 90.2 | 53.8 | 72 | 35.5 | 42.2 | 67.8 | 74.3 | 75.6 | > 100 | 72.4 | 58.2 | 65.8 | 64.5 | 30.6 | 61.8 | 73.7 | 61.3 | 49.9 |
| Cc1ccc2c(c1)CC1(Cc3ccccc3C1=O)C2=O (stereo not drawn) | > 100 | > 100 | > 100 | > 100 | > 100 | > 100 | – | > 100 | > 100 | > 100 | > 100 | > 100 | > 100 | > 100 | > 100 | > 100 | > 100 | > 100 | > 100 | > 100 |
| CCN1CCN(c2nc3ccccc3c3c2CCOc2ccccc2-3)CC1 | > 100 | > 65.1 | > 65.2 | > 56.5 | > 62.7 | > 55.1 | > 67.4 | > 56.9 | > 69.8 | > 75.1 | > 100 | 34.7 | > 62.3 | > 90.9 | > 78.1 | > 66 | > 75.5 | > 56 | > 100 | > 58.3 |
| O=c1cc(N2CCCC2)[nH]c(=O)n1-c1cccc(Cl)c1 | > 100 | > 100 | > 100 | > 100 | > 100 | > 100 | > 100 | > 100 | > 100 | > 100 | > 100 | > 100 | > 100 | > 100 | > 100 | – | > 100 | > 100 | > 100 | > 100 |
| COC(=O)Nc1nc2ccc(S(=O)(=O)SC)cc2[nH]1 | > 100 | 17.9 | 39.3 | 27 | 12.2 | 16.9 | 26.9 | 22.1 | 30.4 | > 100 | 23.9 | 22.5 | > 100 | 16.2 | 82.4 | – | 30.6 | > 100 | 84.5 | 15.3 |
| COC(=O)c1cc2c(cc1Cl)Sc1nnc(Nc3ccc(C)cc3)n1S2(=O)=O | 33.4 | 13.2 | 2.92 | 11.4 | 21.1 | 24.1 | 9.16 | 27.7 | 4.12 | 20.2 | 8.8 | 26 | 10.3 | 18 | 25.7 | 23.6 | 40.4 | 7.07 | 10.7 | 7.75 |
| O=C(NCP(=O)(c1ccccc1)c1ccccc1)OCc1ccccc1 | > 100 | > 100 | > 100 | > 100 | > 100 | > 100 | > 100 | > 100 | > 100 | > 100 | > 100 | > 100 | > 100 | > 100 | > 100 | > 100 | > 100 | > 100 | > 100 | > 100 |
| CC(C)=CCC(O)[C@](C)(O)[C@H]1[C@H](O)C[C@@]2(C)[C@@H]3CCc4cc(O)c(OC5OC(CO)C(O)C(O)C5O)cc4C3(C)C(=O)C[C@]12C (stereo partly drawn) | > 100 | > 100 | > 100 | > 100 | > 100 | > 100 | > 100 | > 100 | > 100 | > 100 | > 100 | > 100 | > 100 | > 100 | > 100 | > 100 | > 100 | > 100 | > 100 | > 100 |
| CC(CC[C@@]1(C)C(=O)CCC2O[C@]21C)[C@H]1C[C@@H](c2ccoc2)OC1=O (stereo partly drawn) | 51 | 39.8 | 69.1 | > 100 | > 100 | 63.1 | > 100 | 94.4 | > 100 | > 100 | 48 | > 100 | 22.2 | > 100 | > 100 | 35.2 | – | 84.7 | 55.3 | > 100 |
| O=C(c1cccs1)N1CCc2ccccc2C1 | > 100 | > 100 | > 100 | > 100 | > 100 | > 100 | > 100 | > 100 | > 100 | > 100 | > 100 | > 100 | > 100 | > 100 | > 100 | > 100 | – | > 100 | – | > 100 |
| O=C(c1ccco1)N(C(=S)OCCOc1ccccc1)c1ccccc1 | 83.4 | 28.2 | 39 | 42.8 | 29.7 | 38.3 | 41.1 | 55.2 | 76.2 | 59.7 | 53.4 | 32.7 | 40.5 | 57.8 | 58.6 | 35.5 | 38.2 | 55.3 | 57.3 | 36.9 |
| COC(=O)c1cc2c(cc1CC(Cc1ccc3c(c1)CCCC3)C(=O)OC)CCCC2 (stereo not drawn) | > 100 | 72.9 | > 100 | > 100 | > 100 | > 100 | > 100 | > 100 | > 100 | > 100 | > 100 | > 100 | > 100 | > 100 | > 100 | > 100 | > 100 | > 100 | 71.1 | > 100 |
| CCOC(=O)c1cn2c(n1)sc1cc(Cl)ccc12 | > 100 | > 100 | 26 | > 100 | > 100 | 26.4 | > 100 | > 100 | > 100 | 83.2 | > 100 | > 100 | > 100 | > 100 | > 100 | > 100 | > 100 | > 100 | > 100 | > 100 |
| NNC(=S)N/N=C(/C(=O)Nc1ccc(Cl)c(Cl)c1)C(C1OC(=O)c2ccccc21)[N+](=O)[O-] (stereo not drawn) | > 100 | > 100 | > 100 | > 100 | > 100 | > 100 | > 100 | > 100 | > 100 | – | > 100 | > 100 | > 100 | > 100 | > 100 | > 100 | > 100 | > 100 | > 100 | > 100 |
| CCC(=O)Oc1ccc2c(c1)c(=O)c1c(NCCCN(C)C)ccc3nnn2c31 | > 100 | 15.5 | 13.9 | 12.7 | 18.7 | 7.06 | 26.4 | 15.5 | 31 | 17.3 | 12.7 | 23.5 | 9.06 | 16.1 | 18.5 | 5.3 | 15.1 | 5.69 | 3.31 | 13.9 |
| CCCCCCCCCCCC(=O)OCC(C[As](=O)(O)O)OC(=O)CCCCCCCCCCC (stereo not drawn) | > 38.9 | 5.86 | 32 | 13 | 9.91 | 26.7 | 12.1 | 30.6 | 42.3 | 9.38 | 5.04 | 3.95 | 4.33 | 9.52 | 44.5 | 17.4 | 24.8 | > 41.6 | 33.3 | 3.5 |
| N#Cc1c(-c2ccccc2)[nH]c2ccc(Cl)cc2c1=O | > 100 | 49 | > 100 | > 100 | > 100 | > 100 | 94.3 | 90.6 | > 100 | 59.9 | > 100 | > 100 | > 100 | > 100 | > 100 | 44 | > 100 | > 100 | > 100 | > 100 |
| Cc1ccc2c3c1O[C@H]1c4[nH]c5ccccc5c4C[C@@]4(O)[C@@H](C2)N(CC2CC2)CC[C@]314 | 61.1 | 20.8 | 31.6 | 31.5 | 26.8 | 27.1 | 31.6 | 31.7 | 36.6 | 32.2 | 30.9 | 30.1 | 29.5 | 24.9 | 42.2 | 26.8 | 34.3 | 32.9 | 17.8 | 32 |
| C[N+]1(C)CCc2cc(O)c(O)cc2C1Cc1ccc(O)c(O)c1 (stereo not drawn) | > 100 | > 100 | > 100 | 43.3 | 39.7 | > 100 | > 100 | > 100 | 54.7 | > 100 | > 100 | > 100 | 58.4 | > 100 | > 100 | > 100 | > 100 | 68.8 | 45.6 | > 100 |
| CN(C)CCCN=c1c2ccccc2n(O)c2ccccc12 | > 100 | > 100 | > 100 | > 100 | > 100 | > 100 | > 100 | > 100 | > 100 | – | > 100 | > 100 | > 100 | > 100 | > 100 | > 100 | > 100 | > 100 | > 100 | > 100 |
| CSc1nnc(SC)nn1 | 27.4 | 30.3 | 32.1 | 32.7 | 32.4 | 27.1 | – | 25.8 | > 100 | 43.3 | 30.5 | 34 | 31.6 | 33.7 | 31.9 | 29.5 | 35.9 | 2.37 | 32.5 | 31 |
| COC1=C(OC)C(=O)C(Cc2c(C)nc3sccn23)=C(C)C1=O | 39.8 | 51.7 | 31.2 | > 100 | 28.6 | 43.2 | 41.5 | 32 | > 100 | 33.3 | 30.1 | 23.5 | 54.9 | 51.6 | 31.1 | 29.1 | 33.6 | – | 18.1 | 40.9 |
| CC(=O)[C@@H](C)C(=O)N1C(=O)OC[C@@]12[C@@H]1CC[C@@H](C1)C2(C)C | > 100 | > 100 | > 100 | > 100 | > 100 | > 100 | > 100 | > 100 | > 100 | > 100 | > 100 | > 100 | > 100 | > 100 | > 100 | > 100 | > 100 | – | > 100 | > 100 |
| O=C(Nc1nnc(-c2ccc(Cl)cc2)o1)C(SC(=S)N1CCOCC1)c1ccccc1 (stereo not drawn) | > 100 | > 100 | 34.1 | > 100 | > 100 | > 100 | 44.7 | > 100 | > 100 | > 100 | 83.5 | – | 48.9 | 55.1 | 90.7 | 30 | > 100 | > 100 | > 100 | > 100 |
